Data published in US8173665B2, “I-pheny 1-3,4-dihydropyrimidin-2(1H)-one derivatives and their use” (Bayer Pharma Aktiengesellschaft, priority 2002, dated 2012).

These molecules were tested against T1, human neutrophil elastase (HNE) (Homo sapiens, UniProt P08246) (assay: In vitro inhibition of HNE using a fluorogenic peptide substrate (MeOSuc-Ala-Ala-Pro-Val-AMC)). Conditions: 384 MTP format.
T1 construct: purchased SERVA Electrophoresis GmbH, Heidelberg, Germany #20927.01
T1 sequence (P08246 30-267): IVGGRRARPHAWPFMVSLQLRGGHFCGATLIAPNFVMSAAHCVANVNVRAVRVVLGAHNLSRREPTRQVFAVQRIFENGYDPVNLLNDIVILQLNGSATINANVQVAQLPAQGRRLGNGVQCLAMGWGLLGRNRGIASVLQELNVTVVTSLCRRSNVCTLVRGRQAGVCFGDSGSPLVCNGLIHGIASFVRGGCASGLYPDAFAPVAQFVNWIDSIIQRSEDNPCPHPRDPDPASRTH
Type: biochemical
Protocol: I. In Vitro Enzyme Assays of Human Neutrophil Elastase (HNE) assay buffer: 0.1 M HEPES-NaOH buffer pH 7.4, 0.5 M NaCl, 0.1% (w/v) bovine serum albumin; suitable concentration (see below) of HNE (18 U/mg lyophil., #20927.01, SERVA Electrophoresis GmbH, Heidelberg, Germany) in assay buffer; suitable concentration (see below) of substrate in assay buffer; suitable concentration of test compounds diluted with assay buffer from a 10 mM stock solution in DMSO.
In Vitro Inhibition of HNE Using a Fluorogenic Peptide Substrate
Continuous Read-Out Signal, 384 MTP Assay Format
In this protocol, the elastase substrate MeOSuc-Ala-Ala-Pro-Val-AMC (#324740, Calbiochem-Novabiochem Corporation, Merck KGaA, Darmstadt, Germany) is used. The test solution is prepared by mixing 10 μl of test compound dilution, 20 μl of HNE enzyme dilution (final concentration 8-0.4 μU/ml, routinely 2.1 μU/ml) and 20 μl of substrate dilution (final concentration 1 mM-1 μM, routinely 20 μM), respectively. The solution is incubated for 0-2 hrs at 37° C. (routinely one hour). The fluorescence of the liberated AMC due to the enzymatic reaction is measured at 37° C. (TECAN spectra fluor plus plate reader). The rate of increase of the fluorescence (ex. 395 nm, em. 460 nm) is proportional to elastase activity. IC50 values are determined by RFU-versus-[I] plots. Km and Km(app.) values are determined by Lineweaver-Burk plots and converted to Ki values by Dixon plots.
With `CC(=O)C1=C(C)N(c2cccc(C(F)(F)F)c2)C(=S)NC1c1ccc(C#N)cc1` (stereo not shown) [Example 1, 4-{5-Acetyl-6-methyl-2-thioxo-1-[3-(trifluoromethyl)phenyl]-1,2,3,4-tetrahydro-4-pyrimidinyl}benzonitrile] the IC50 was 13 nM. Molecule `CCOC(=O)C1=C(C)N(c2cccc(C(F)(F)F)c2)C(=S)NC1c1ccc(C#N)cc1` (stereo not shown) [Example 3, Ethyl 4-(4-cyanophenyl)-6-methyl-2-thioxo-1-[3-(trifluoromethyl)phenyl]-1,2,3,4-tetrahydro-5-pyrimidinecarboxylate] has an IC50 of 9 nM. In the case of `CC1=C(C(N)=O)C(c2ccc(C#N)cc2)NC(=S)N1c1cccc(C(F)(F)F)c1` (stereo not shown) [Example 4, 4-(4-Cyanophenyl)-6-methyl-2-thioxo-1-[3-(trifluoromethyl)phenyl]-1,2,3,4-tetrahydro-5-pyrimidinecarboxamide], the IC50 is reported as 23 nM. `CC1=C(C(=O)N(C)C)C(c2ccc(C#N)cc2)NC(=S)N1c1cccc(C(F)(F)F)c1` (stereo not shown) [Example 6, 4-(4-Cyanophenyl)-N,N,6-trimethyl-2-thioxo-1-[3-(trifluoromethyl)phenyl]-1,2,3,4-tetrahydro-5-pyrimidinecarboxamide] showed an IC50 of 70 nM. For `CCOC(=O)C1=C(C)N(c2cccc(C(F)(F)F)c2)C(SC)=NC1c1ccc(C#N)cc1` (stereo not shown) [Example 7], the IC50 was 10 nM. `CCOC(=O)C1=C(C)N(c2cccc(C(F)(F)F)c2)C(SCC)=NC1c1ccc(C#N)cc1` (stereo not shown) [Example 9] was tested, and the IC50 was 40 nM. `CCOC(=O)C1=C(C)N(c2cccc(C(F)(F)F)c2)C(SCc2ccncc2)=NC1c1ccc(C#N)cc1` (stereo not shown) [Example 12, Ethyl 4-(4-cyanophenyl)-6-methyl-2-[(4-pyridinylmethyl)sulfanyl]-1-[3-(trifluoromethyl)phenyl]-1,4-dihydro-5-pyrimidinecarboxylate] was tested, and the IC50 was 100 nM. With `CCOC(=O)C1=C(C)N(c2cccc(C(F)(F)F)c2)C(SCCN(CC)CC)=NC1c1ccc(C#N)cc1` (stereo not shown) [Example 14, Ethyl 4-(4-cyanophenyl)-2-{[2-(diethylamino)ethyl]sulfanyl}-6-methyl-1-[3-(trifluoromethyl)phenyl]-1,4-dihydro-5-pyrimidinecarboxylate] the IC50 was 10 nM. In the case of `CCOC(=O)C1=C(C)N(c2cccc(C(F)(F)F)c2)C(SCc2ncc[nH]2)=NC1c1ccc(C#N)cc1` (stereo not shown) [Example 15, Ethyl 4-(4-cyanophenyl)-2-[(1H-imidazol-2-ylmethyl)sulfanyl]-6-methyl-1-[3-(trifluoromethyl)phenyl]-1,4-dihydro-5-pyrimidinecarboxylate], the IC50 is reported as 5 nM. `CC1=C(C(=O)O)C(c2ccc(C#N)cc2)NC(=S)N1c1cccc(C(F)(F)F)c1` (stereo not shown) [Example 19, 4-(4-Cyanophenyl)-6-methyl-2-thioxo-1-[3-(trifluoromethyl)phenyl]-1,2,3,4-tetrahydropyrimidine-5-carboxylic acid] was tested, and the IC50 was 30 nM. `CCOC(=O)C1=C(C)N(c2cccc(C(F)(F)F)c2)C(=S)N(C(=O)C2CCC2)C1c1ccc(C#N)cc1` (stereo not shown) [Example 29] was tested, and the IC50 was 10 nM. Work on `CCOC(=O)C1=C(C)N(c2cccc(C(F)(F)F)c2)C(SC)=NC1c1ccc(C#N)cc1C` (stereo not shown) [Example 31, Ethyl 4-(4-cyano-2-methylphenyl)-6-methyl-2-(methylsulfanyl)-1-[3-(trifluoromethyl)phenyl]-1,4-dihydro-5-pyrimidinecarboxylate] yielded an IC50 of 80 nM. Work on `CCOC(=O)C1=C(C)N(c2cccc(Cl)c2)C(SCCCOC(N)=O)=NC1c1ccc(C#N)cc1` (stereo not shown) [Example 33] yielded an IC50 of 20 nM. In the case of `CCN(CC)CCOC(=O)C1=C(C)N(c2cccc(C(F)(F)F)c2)C(SC)=NC1c1ccc(C#N)cc1` (stereo not shown) [Example 58, 2-(Diethylamino)ethyl 4-(4-cyanophenyl)-6-methyl-2-(methylsulfanyl)-1-[3-(trifluoromethyl)phenyl]-1,4-dihydro-5-pyrimidinecarboxylate], the IC50 is reported as 12 nM.

What follows are molecules tested on human polymorphonuclear cells (PMNs) (assay: In vitro PMN elastolysis assay (3H-elastin)). Conditions: at 1.2 μM; n=3 different donors at 3.6×10^5 cells per well.
Type: cell-based
Protocol: In Vitro PMN Elastolysis Assay
This assay is used to determine the elastolytic potential of human polymorphonuclear cells (PMNs) and assess the proportion of degradation due to neutrophil elastase [cf. Z. W. She et al., Am. J. Respir. Cell. Mol. Biol. 9, 386-392 (1993)].
Tritiated elastin, in suspension, is coated on to a 96 well plate at 10 μg per well. Test and reference [ZD-0892 (J. Med. Chem. 40, 1876-1885, 3173-3181 (1997), WO 95/21855) and α1 protease inhibitor (α1PI)] compounds are added to the wells at the appropriate concentrations. Human PMNs are separated from peripheral venous blood of healthy donors and resuspended in culture media. The neutrophils are added to the coated wells at concentrations ranging between 1×10^6 to 1×10^5 cells per well. Porcine pancreatic elastase (1.3 μM) is used as a positive control for the assay, and α1PI (1.2 μM) is used as the positive inhibitor of neutrophil elastase. The cellular control is PMNs without compound at each appropriate cell density. The cells plus compounds are incubated in a humidified incubator at 37° C. for 4 hours. The plates are centrifuged to allow the harvest of cell supernatant only. […] The plates are dried until no liquid is visible in the wells and read in a beta counter for 3 minutes per well. […]
The compounds of this invention are evaluated for their inhibitory activity in this HNE-dependent model of neutrophil elastolysis.
With “α1PI: α1 protease inhibitor, used as the positive inhibitor of neutrophil elastase” the “inhibition of elastolysis (mean±s.e.m.)” value was 83.46±3.97%.

Same assay, conditions: n=2 different donors at 3.6×10^5 cells per well; read-out: IC50 (mean±s.e.m.)
Work on `COc1ccc(C(=O)N[C@H](C(=O)N2CCC[C@H]2C(=O)N[C@H](C(=O)C(F)(F)F)C(C)C)C(C)C)cc1` [ZD-0892] yielded an IC50 of 45.5 ± 7.75 nM.
